Measurements published in article PMC6272127, “Synthesis, Antiproliferative Activity and Molecular Properties Predictions of Galloyl Derivatives” (Molecules, 2015).
Values after ≈ are worked out from the molar mass of the structure shown.

Columns and labels:
U251 (glioma, CNS) = assay: cells
Method: The GI50 values (growth inhibitory activity) (Table 1) refer to the drug concentration that produces a 50% reduction of cellular growth compared with the untreated control cells. The TGI (cytostatic activity) and LC50 (cytotoxic activity) values (Table 2) refer to the drug concentration required for total growth inhibition and killing 50% of the cells, respectively.
The synthesized compounds were assessed in the following ten human tumor cell lines from various tissues kindly provide by the National Cancer Institute (Frederick, MD, USA): U251 (glioma, CNS), MCF-7 (breast), NCI-ADR/RES (breast expressing the multiple drug resistance phenotype), 786-0 (renal), NCI-H460 (lung, non-small cells), PC-3 (prostate), OVCAR-3 (ovarian), HT-29 (colon), K-562 (leukemia) and HaCaT (keratinocytes). Stock cultures were grown in media containing 5 mL of RPMI 1640 (Gibco BRL) supplemented with 5% fetal bovine serum. Gentamicin ([…]) was added to the experimental cultures. Cells in 96-well plates (100 µL cells/well) were exposed to sample concentrations in DMSO/RPMI (0.25, 2.5, 25, and 250 µg/mL) at 37 °C and 5% CO2 for 48 h. […] Next, cells were fixed with 50% trichloroacetic acid, and cell proliferation was determined by spectrophotometric quantification (540 nm) of cellular protein content employing the sulforhodamine B assay. Doxorubicin (0.025–25 µg/mL) was used as a positive control. Three measurements were obtained: first at time point zero (T0, at the beginning of incubation) and then 48 h post-incubation for both the compound-free (C) and tested (T) cells. Cell proliferation was determined using the equation 100 × [(T − T0)/C − T0]. A cytostatic effect was observed when T ≥ T0, while a cytocidal effect occurred when T < T0. The experiments were performed in triplicate.

MCF-7 (breast) = assay: Anticancer assay in vitro (sulforhodamine B), MCF-7; format: cell-based
Method: (§1) The experiments were performed in triplicate.

OVCAR-3 (ovarian) = assay: Anticancer assay in vitro (sulforhodamine B), OVCAR-3; format: cell-based; conditions: for GI50: OVCAR-3, 48 h, SRB
Method: as §1

HT-29 (colon) = assay: Anticancer assay in vitro (sulforhodamine B), HT-29; format: cell-based
Method: as §1

786-0 (renal) = assay: cells; format: cell-based
Method: as §1

K-562 (leukemia) = assay: cells; format: cell-based; conditions: Homo sapiens, K562; K-562, 48 h, SRB
Method: as §1

[1] = system: NCI-ADR/RES (breast expressing the multiple drug resistance phenotype); assay: cells; format: cell-based; conditions: NCI/ADR-RES, 48 h
Method: as §1

[2] = system: NCI-H460 (lung, non-small cells); assay: cells; format: cell-based
Method: as §1

PC-3 (prostate) = assay: cells; format: cell-based
Method: as §1

[3] = Anticancer assay in vitro (sulforhodamine B), HaCaT; format: cell-based; conditions: human, HaCaT keratinocytes, killing 50% of cells, read-out: LC50
Method: as §1

HaCaT (keratinocytes) = assay: as above; format: cell-based; conditions: 48 h
Method: as §1

## NNC(=O)c1cc(O)c(O)c(O)c1 [Compound 3, Galloyl hydrazide]
U251 (glioma, CNS); Homo sapiens, U-251, 48 h
  GI50: 1.11 µM
U251 (glioma, CNS); Homo sapiens, U-251, 48 h, read-out: LC50
  CC50: 31.4 µg/mL (≈ 170 µM)
U251 (glioma, CNS); U251, total growth inhibition, 48 h
  TGI: 6.13 µg/mL (≈ 33.3 µM)
MCF-7 (breast); Homo sapiens, MCF7, MCF-7, 48 h, SRB
  GI50: 0.85 µM
MCF-7 (breast); MCF-7, as printed in the text
  TGI: 2.36 µM
MCF-7 (breast); MCF-7, total growth inhibition, 48 h
  TGI: 2.36 µg/mL
OVCAR-3 (ovarian); Homo sapiens
  GI50: ≤ 0.89 µM
OVCAR-3 (ovarian)
  GI50: 0.88 µM
OVCAR-3 (ovarian); OVCAR-3, total growth inhibition, 48 h
  TGI: 9.77 µg/mL (≈ 53.1 µM)
HT-29 (colon); HT-29, total growth inhibition, 48 h
  TGI: 3.27 µg/mL (≈ 17.8 µM)
HT-29 (colon); Homo sapiens, HT-29, 48 h, SRB
  GI50: 1.21 µM
HT-29 (colon); Homo sapiens, HT-29, killing 50% of cells, 48 h, read-out: LC50 (the source's name)
  CC50: 26.2 µg/mL (≈ 142 µM)
786-0 (renal); 786-0, total growth inhibition, 48 h
  TGI: 17.98 µg/mL (≈ 97.6 µM)
786-0 (renal); Homo sapiens, 786-0, 48 h, SRB
  GI50: 1.56 µM
K-562 (leukemia)
  GI50: 1.17 µM
[1]; Homo sapiens, SRB
  GI50: 0.91 µM
[1]; total growth inhibition
  TGI: 2.56 µg/mL (≈ 13.9 µM)
[2]; Homo sapiens, NCI-H460, 48 h, SRB
  GI50: 5.54 µM
[2]; NCI-H460, total growth inhibition, 48 h
  TGI: 17.35 µg/mL (≈ 94.2 µM)
PC-3 (prostate); Homo sapiens, PC-3, 48 h, SRB
  GI50: 3.53 µM
PC-3 (prostate); PC-3, total growth inhibition, 48 h
  TGI: 18.31 µg/mL (≈ 99.4 µM)
[3]
  CC50 at 48 h: > 100 µg/mL
HaCaT (keratinocytes); Homo sapiens, SRB
  GI50: 2.5 µM
HaCaT (keratinocytes); total growth inhibition
  TGI: 29.02 µg/mL (≈ 158 µM)
